Values belong to the compound of their own block, whether it stands above or below them. Active and inactive are the calls of the source. The rule behind the calls is not given here.
Tests used:
[1] = Induction of apoptosis in mouse SPHK2-transfected mouse A20/2J cells assessed as early apoptotic cells at 8 uM after 6 hrs by FITC-annexin V/propidium iodide staining-based flow cytometric analysis (reference value: 2.48%); format: functional
[2] = Induction of apoptosis in mouse SPHK2-transfected mouse A20/2J cells assessed as viable cells at 8 uM after 6 hrs by FITC-annexin V/propidium iodide staining-based flow cytometric analysis (reference value: 96.1%); format: functional; conditions: read-out: Activity
[3] = Induction of apoptosis in mouse SPHK2-transfected mouse A20/2J cells assessed as late apoptotic cells at 8 uM after 6 hrs by FITC-annexin V/propidium iodide staining-based flow cytometric analysis (reference value: 1.12%); format: functional
[4] = Induction of apoptosis in mouse A20/2J cells assessed as early apoptotic cells at 8 uM after 6 hrs by FITC-annexin V/propidium iodide staining-based flow cytometric analysis (reference value: 2.58%); format: functional
[5] = Induction of apoptosis in mouse A20/2J cells assessed as viable cells at 8 uM after 6 hrs by FITC-annexin V/propidium iodide staining-based flow cytometric analysis (reference value: 95.9%); format: functional; conditions: read-out: Activity
A20/2J [6] = assay: Induction of apoptosis in mouse SPHK1-transfected mouse A20/2J cells assessed as increase in LDH release at 50 uM; format: functional, cell-based
[7] = biological target: Sphingosine kinase 1 (Mus musculus) (UniProt Q8CI15); assay: Activity at mouse SPHK1 transfected in mouse A20/2J cell lysates assessed as compound phosphorylation at 10 uM after 30 mins by autoradiography in presence of [gamma-32P]ATP; format: cell-free
A20/2J [8] = assay: Induction of apoptosis in mouse A20/2J cells assessed as increase in LDH release at 10 uM up to 10 hrs; format: functional, cell-based
A20/2J [9] = assay: Induction of apoptosis in mouse SPHK1-transfected mouse A20/2J cells assessed as increase in LDH release at 10 uM up to 10 hrs; format: functional, cell-based
[10] = Induction of apoptosis in mouse A20/2J cells assessed as activation of caspase 3 at 10 uM after 3 hrs by flow cytometric analysis; format: functional
[11] = Induction of apoptosis in mouse SPHK2-transfected mouse A20/2J cells assessed as activation of caspase 3 at 10 uM after 3 hrs by flow cytometric analysis; format: functional
A20/2J [12] = assay: Induction of apoptosis in mouse SPHK2-transfected mouse A20/2J cells assessed as chromatin condensation at 8 uM after 18 hrs by transmission electron microscopy; format: functional, cell-based
A20/2J [13] = assay: Induction of apoptosis in mouse SPHK2-transfected mouse A20/2J cells at 8 uM after 6 hrs by flow cytometric analysis in presence of pan-caspase inhibitor z-VAD-fmk; format: functional, cell-based
[14] = biological target: T1, Sphingosine kinase 2 (Mus musculus) (UniProt Q9JIA7); assay: Activity at mouse SPHK2 transfected in mouse A20/2J cell lysates assessed as compound phosphorylation at 10 uM after 30 mins by autoradiography in presence of [gamma-32P]ATP; format: cell-free
T1 sequence (whole entry): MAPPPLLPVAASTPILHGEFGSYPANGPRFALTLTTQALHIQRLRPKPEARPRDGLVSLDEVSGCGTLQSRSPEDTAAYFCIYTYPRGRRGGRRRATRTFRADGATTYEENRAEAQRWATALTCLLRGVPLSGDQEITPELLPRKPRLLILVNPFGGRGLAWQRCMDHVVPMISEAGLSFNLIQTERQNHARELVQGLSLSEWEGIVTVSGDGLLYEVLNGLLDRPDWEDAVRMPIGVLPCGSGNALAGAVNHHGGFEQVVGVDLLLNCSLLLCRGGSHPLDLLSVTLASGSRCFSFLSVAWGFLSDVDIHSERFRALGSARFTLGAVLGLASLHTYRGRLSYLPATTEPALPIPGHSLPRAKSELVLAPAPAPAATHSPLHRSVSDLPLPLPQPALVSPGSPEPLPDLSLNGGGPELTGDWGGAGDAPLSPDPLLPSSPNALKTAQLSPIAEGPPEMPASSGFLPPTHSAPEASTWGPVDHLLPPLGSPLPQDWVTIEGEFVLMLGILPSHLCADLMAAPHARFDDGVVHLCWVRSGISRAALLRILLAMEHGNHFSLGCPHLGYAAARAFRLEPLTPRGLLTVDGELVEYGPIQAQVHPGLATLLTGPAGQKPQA

[15] = Induction of apoptosis in mouse N-terminal FLAG-tagged SPHK1-transfected mouse A20/2J cells at 10 uM after 9 hrs by LDH release assay; format: functional
[16] = Induction of apoptosis in mouse SPHK2 L219A mutant-transfected mouse A20/2J cells at 10 uM after 9 hrs by LDH release assay; format: functional
[17] = Induction of apoptosis in mouse SPHK2 G213D mutant-transfected mouse A20/2J cells at 10 uM after 9 hrs by LDH release assay; format: functional
[18] = Induction of apoptosis in mouse N-terminal FLAG-tagged SPHK2-transfected mouse A20/2J cells at 10 uM after 9 hrs by LDH release assay; format: functional
[19] = Induction of apoptosis in mouse SPHK2 R293E/R294E mutant-transfected mouse A20/2J cells at 10 uM after 9 hrs by LDH release assay; format: functional
A20/2J [20] = assay: Induction of apoptosis in mouse SPHK2-transfected mouse A20/2J cells assessed as increase in LDH release at 50 uM; format: functional, cell-based
A20/2J [21] = assay: Induction of apoptosis in mouse SPHK2-transfected mouse A20/2J cells assessed as increase in LDH release after 8 hrs; format: functional, cell-based
A20/2J [22] = assay: Induction of apoptosis in mouse SPHK2-transfected mouse A20/2J cells assessed as increase in LDH release at 10 uM after 6 hrs; format: functional, cell-based
A20/2J [23] = assay: Induction of apoptosis in mouse SPHK2-transfected mouse A20/2J cells assessed as increase in LDH release at 10 uM; format: functional, cell-based; conditions: TDE = time-dependent effect
[24] = Induction of apoptosis in mouse A20/2J cells assessed as late apoptotic cells at 8 uM after 6 hrs by FITC-annexin V/propidium iodide staining-based flow cytometric analysis (reference value: 1.39%); format: functional
[25] = biological target: Sphingosine kinase 1 (Mus musculus) (UniProt Q8CI15); assay: Inhibition of mouse SPHK1 in mouse A20/2J cells using [3-3H]sphingosine as substrate assessed as [3H]S1P formation at 2 to 4 uM incubated for 5 mins prior to substrate addition measured after 5 mins; format: cell-based
[26] = biological target: T1, Sphingosine kinase 2 (Mus musculus); assay: Inhibition of mouse SPHK2 in mouse A20/2J cells using [3-3H]sphingosine as substrate assessed as [3H]S1P formation at 2 to 4 uM incubated for 5 mins prior to substrate addition measured after 5 mins; format: cell-based
[27] = biological target: Sphingosine kinase 1 (Mus musculus) (UniProt Q8CI15); assay: Inhibition of mouse SPHK1 in mouse A20/2J cells using [3-3H]sphingosine as substrate assessed as [3H]S1P formation at 8 uM incubated for 5 mins prior to substrate addition measured after 5 mins; format: cell-based
[28] = biological target: T1, Sphingosine kinase 2 (Mus musculus); assay: Inhibition of mouse SPHK2 in mouse A20/2J cells using [3-3H]sphingosine as substrate assessed as [3H]S1P formation at 8 uM incubated for 5 mins prior to substrate addition measured after 5 mins; format: cell-based
[29] = Induction of apoptosis in mouse SPHK1-transfected mouse A20/2J cells assessed as activation of caspase 3 at 10 uM after 3 hrs by flow cytometric analysis; format: functional

Chain of Sphingosine kinase 1 (Mus musculus) (Q8CI15 whole entry): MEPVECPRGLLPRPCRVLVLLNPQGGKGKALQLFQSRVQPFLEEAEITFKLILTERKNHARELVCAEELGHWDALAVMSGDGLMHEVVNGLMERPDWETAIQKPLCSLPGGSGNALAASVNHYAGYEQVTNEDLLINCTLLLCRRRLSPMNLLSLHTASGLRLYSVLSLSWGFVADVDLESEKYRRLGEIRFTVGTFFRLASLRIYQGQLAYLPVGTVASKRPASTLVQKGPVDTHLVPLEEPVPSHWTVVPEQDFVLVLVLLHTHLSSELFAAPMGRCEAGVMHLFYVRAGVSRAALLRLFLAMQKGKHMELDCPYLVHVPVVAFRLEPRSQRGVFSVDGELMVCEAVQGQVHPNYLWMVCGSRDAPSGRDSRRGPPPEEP

Activity [7]: Active
Activity [14]: Active
inhibition [25]: Active
inhibition [26]: Active
inhibition [27]: 8%
inhibition [28]: 46%
SMILES: CCCCCCCCc1ccc(C[C@@H](O)[C@@H](N)CO)cc1
Activity [1]: 7.86%
viability at 8 µM [2]: 70.1%
Activity [3]: 19%
Activity [4]: 5.06%
viability at 8 µM [5]: 93.2%
Activity (A20/2J [6]): Active
Activity (A20/2J [8]): Active
Activity (A20/2J [9]): Active
Activity [10]: 9.6%
Activity [11]: 31.8%
Activity (A20/2J [12]): Active
Activity (A20/2J [13]): Active
Activity [15]: 17.8%
Activity [16]: 20.3%
Activity [17]: 9.8%
Activity [18]: 18.4%
Activity [19]: 13.2%
Activity (A20/2J [20]): Active
Activity (A20/2J [21]): Dose-dependent effect
Activity (A20/2J [22]): Active
Activity (A20/2J [23]): tde
Activity [24]: 1.62%
Activity [29]: 6.4%

Activity [7]: Active
Activity [14]: Active
inhibition [25]: inactive
inhibition [26]: inactive
SMILES: CCCCCCCCc1ccc(C[C@H](O)[C@@H](N)CO)cc1

— ChEMBL document CHEMBL2401642, “Sphingosine kinase 2 inhibitor SG-12 induces apoptosis via phosphorylation by sphingosine kinase 2” (2013)
